Reference: ChEMBL document CHEMBL1201862, “PubChem BioAssay data set” (2004)
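The compound was tested at five concentrations on cells cultured in 96-well plates, with a 48-hour exposure period. Here, GI50 denotes the concentration required for 50% inhibition of growth.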 Active and inactive are the calls of the source. No stated cut-off is given here; in the data, active = GI50 up to about 1.1 µM and inactive = higher.

Columns and labels:
Assay in all cases: NCI-60 cell line screen, 48 h
TK-10 = tested on: TK-10
OVCAR-8 = tested on: OVCAR-8
A549 = tested on: A549
UO-31 = tested on: UO-31
SK-MEL-2 = tested on: SK-MEL-2
SK-MEL-28 = tested on: SK-MEL-28
NCI-H23 = tested on: NCI-H23
OVCAR-3 = tested on: OVCAR-3
CCRF-CEM = tested on: CCRF-CEM
K562 = tested on: K562
HT-29 = tested on: HT-29
HCT-116 = tested on: HCT-116
UACC-257 = tested on: UACC-257
HOP-92 = tested on: HOP-92
RPMI-8226 = tested on: RPMI-8226
UACC-62 = tested on: UACC-62
IGROV-1 = tested on: IGROV-1

Measured: GI50

NC1=NS(=O)(=O)Nc2nc(-c3ccccc3)c(-c3ccccc3)nc21
inactive: TK-10 > 100 µM | OVCAR-8 > 100 µM | A549 > 100 µM | UO-31 > 100 µM | SK-MEL-2 > 100 µM | SK-MEL-28 > 100 µM | NCI-H23 > 100 µM | OVCAR-3 > 100 µM | CCRF-CEM > 100 µM | K562 > 100 µM | HT-29 > 100 µM | HCT-116 > 100 µM | UACC-257 > 100 µM | HOP-92 > 100 µM | RPMI-8226 > 100 µM | UACC-62 > 100 µM | IGROV-1 > 100 µM

COC(=O)C(=C\Sc1ccccc1)/C=C/C(=O)OC(C)(C)C
inactive: TK-10 17.1 µM | OVCAR-8 15.3 µM | A549 18.3 µM | UO-31 16 µM | SK-MEL-2 12 µM | SK-MEL-28 13.4 µM | NCI-H23 17.1 µM | OVCAR-3 5.25 µM | CCRF-CEM 1.89 µM | K562 3.01 µM | HT-29 16.5 µM | HCT-116 8.47 µM | UACC-257 13.5 µM | HOP-92 4.4 µM | RPMI-8226 3.06 µM | UACC-62 15.3 µM | IGROV-1 13.1 µM

Cc1ccc(O)c(C(=O)CCCC(=O)c2cc(C)ccc2O)c1
inactive: TK-10 48.1 µM | OVCAR-8 > 100 µM | UO-31 44.9 µM | SK-MEL-2 > 100 µM | SK-MEL-28 > 100 µM | NCI-H23 > 100 µM | CCRF-CEM > 100 µM | K562 35 µM | HT-29 > 100 µM | UACC-257 > 100 µM | HOP-92 61 µM | RPMI-8226 > 100 µM | UACC-62 > 100 µM | IGROV-1 > 100 µM

COC(=O)/C(C#N)=C1\CCc2ccccc21
inactive: TK-10 > 100 µM | OVCAR-8 > 100 µM | A549 > 100 µM | UO-31 > 100 µM | SK-MEL-2 > 100 µM | SK-MEL-28 > 100 µM | NCI-H23 > 100 µM | OVCAR-3 > 100 µM | CCRF-CEM > 100 µM | K562 > 100 µM | HT-29 > 100 µM | UACC-257 > 100 µM | HOP-92 > 100 µM | RPMI-8226 > 100 µM | UACC-62 > 100 µM | IGROV-1 > 100 µM

CCOC(=O)CN.CCOC(=O)Nc1ccc(S(=O)(=O)OC)cc1.CCOC(=O)Nc1ccc(S(=O)(=O)OC)cc1
inactive: TK-10 > 50 µM | OVCAR-8 > 50 µM | A549 > 50 µM | UO-31 > 50 µM | SK-MEL-2 > 50 µM | SK-MEL-28 > 50 µM | NCI-H23 > 50 µM | OVCAR-3 > 50 µM | CCRF-CEM > 50 µM | K562 > 50 µM | HT-29 > 50 µM | HCT-116 > 50 µM | UACC-257 > 50 µM | HOP-92 > 50 µM | RPMI-8226 > 50 µM | UACC-62 > 50 µM | IGROV-1 > 50 µM

N#Cc1c2nc3ccccc3nc2n2ccccc12
inactive: TK-10 > 100 µM | OVCAR-8 > 100 µM | A549 > 100 µM | UO-31 > 100 µM | SK-MEL-2 > 100 µM | SK-MEL-28 > 100 µM | NCI-H23 > 100 µM | OVCAR-3 > 100 µM | CCRF-CEM > 100 µM | K562 > 100 µM | HCT-116 > 100 µM | UACC-257 > 100 µM | RPMI-8226 > 100 µM | UACC-62 > 100 µM | IGROV-1 > 100 µM

Fc1ccc(C2SCc3nc4ccccc4n32)c(F)c1 (centres undefined)
inactive: TK-10 32.5 µM | OVCAR-8 79.3 µM | A549 83.8 µM | UO-31 42.3 µM | SK-MEL-2 71.9 µM | NCI-H23 46.3 µM | OVCAR-3 51.1 µM | CCRF-CEM 51.6 µM | K562 34.9 µM | HT-29 81.1 µM | HCT-116 54 µM | UACC-257 34.4 µM | HOP-92 29.8 µM | RPMI-8226 37.9 µM | UACC-62 64.7 µM | IGROV-1 > 100 µM

Cn1ccc(=NS(=O)(=O)c2ccccc2)cc1
inactive: TK-10 > 100 µM | OVCAR-8 > 100 µM | A549 > 100 µM | UO-31 > 100 µM | SK-MEL-2 > 100 µM | SK-MEL-28 > 100 µM | NCI-H23 > 100 µM | OVCAR-3 > 100 µM | CCRF-CEM > 100 µM | K562 > 100 µM | HT-29 > 100 µM | HCT-116 > 100 µM | UACC-257 > 100 µM | HOP-92 > 100 µM | RPMI-8226 > 100 µM | IGROV-1 > 100 µM

COc1ccc2nc3c(C(=O)NCCN(C)C)cccc3nc2c1
inactive: TK-10 3.37 µM | OVCAR-8 5.16 µM | A549 4.28 µM | UO-31 4.89 µM | SK-MEL-2 6.21 µM | SK-MEL-28 8.3 µM | NCI-H23 4.73 µM | OVCAR-3 10.2 µM | CCRF-CEM 5.55 µM | K562 5 µM | HT-29 4.17 µM | HCT-116 3.32 µM | UACC-257 3.91 µM | HOP-92 4.34 µM | UACC-62 5.55 µM | IGROV-1 5.61 µM
